Some test systems named below: ACHN renal; NCI-H226 lung; CAKI-1 renal; MDA-MB-231 breast; NCI-H23 lung; SK-MEL-5 melanoma; NCI-H522 lung; MDA-N; M14 melanoma; IGROV1 ovarian.
Experiment in all cases: NCI anticancer screen, dose series, 48 h

Several values for one entry are separate records, joined by “and”; a condition that tells them apart may be missing. Equal values may be shown once.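 96-well plates; 48 h exposure; 5 concentrations. Endpoints by linear interpolation between flanking doses. Not reached: highest tested concentration assigned. GI50: concentration for 50% inhibition of growth. TGI denotes the concentration required for complete inhibition of growth.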

In the case of `N#Cc1nnc2c3c(-c4ccc(Cl)cc4)c(C#N)c(=O)[nH]c3nn2c1N`, the TGI in the test with ACHN renal turned out to be 21.9 µM; in the test on NCI-H226 lung, 32.6 µM; in the test with CAKI-1 renal, 16.4 µM; with MDA-MB-231 breast, 43.5 µM; in the test on NCI-H23 lung it was 24 µM; in the test with SK-MEL-5 melanoma it was 19.1 µM. The TGI with NCI-H522 lung was determined as 6.11 µM; in the test with MDA-N, 13.4 µM; with M14 melanoma, 21.7 µM; in the test on IGROV1 ovarian, 9.65 µM.

`OCc1ccccc1OC1OC(CO)C(O)C(O)C1O` (configuration not stated): the TGI with ACHN renal, with NCI-H226 lung, in the test with CAKI-1 renal, in the test with MDA-MB-231 breast, in the test with NCI-H23 lung and in the test with SK-MEL-5 melanoma was above 100 µM throughout. The TGI with NCI-H522 lung, in the test with MDA-N, in the test on M14 melanoma and with IGROV1 ovarian was above 100 µM in each case.

As for `O=C(NCCCCl)c1c(O)c2ccccc2[nH]c1=O`, the TGI with ACHN renal, in the test with NCI-H226 lung, with CAKI-1 renal, in the test on MDA-MB-231 breast, with NCI-H23 lung and with SK-MEL-5 melanoma was above 100 µM each time. For the same molecule, the TGI with NCI-H522 lung, with MDA-N, in the test on M14 melanoma and in the test on IGROV1 ovarian was above 100 µM throughout.

As for `CC(=O)OCC1OC(n2c3c(c(-c4ccco4)c(C#N)c2=S)CCCC3)C(OC(C)=O)C(OC(C)=O)C1OC(C)=O` (configuration not stated), the TGI with ACHN renal was above 31.6 µM; in the test with NCI-H226 lung, above 31.6 µM; in the test on CAKI-1 renal, 87.8 µM; in the test on MDA-MB-231 breast it was above 31.6 µM; with NCI-H23 lung, above 31.6 µM; with SK-MEL-5 melanoma, above 31.6 µM. For the same molecule, the TGI with NCI-H522 lung is above 31.6 µM; in the test with MDA-N it was above 31.6 µM; in the test on M14 melanoma it was above 100 µM; in the test with IGROV1 ovarian it was above 31.6 µM.

Consider `C/C(=C/CC[C@](C)(OC1OC(CO)C(O)C(O)C1O)[C@H]1CC[C@]2(C)[C@@H]1CC[C@@H]1[C@@]3(C)CC[C@H](O)C(C)(C)[C@@H]3C[C@H](O)[C@]12C)CO` (some centres not stated), for which the TGI was above 100 µM with ACHN renal; 60.4 µM in the test on NCI-H226 lung; 81.6 µM in the test with CAKI-1 renal; 91.5 µM in the test with MDA-MB-231 breast; above 100 µM in the test on NCI-H23 lung; 39.8 µM in the test on SK-MEL-5 melanoma. Also, the TGI in the test with NCI-H522 lung was 42.7 µM; in the test with MDA-N, 56.6 µM; with M14 melanoma, above 100 µM; in the test on IGROV1 ovarian it was above 100 µM.

Take `CCC1(O)CN(CCOC)[C@H]2C[C@@H]1C(=O)c1[nH]c3ccccc3c12` (some centres not stated): the TGI in the test with ACHN renal, with NCI-H226 lung, with CAKI-1 renal, with MDA-MB-231 breast, in the test with NCI-H23 lung and with SK-MEL-5 melanoma was above 100 µM throughout. Besides, the TGI in the test with NCI-H522 lung, in the test with MDA-N, with M14 melanoma and in the test on IGROV1 ovarian was above 100 µM throughout.

Consider `CCCCCCCC(CC(=O)O)OC(=O)CC(CCCCCCC)OC1OC(C)C(O)C(O)C1OC1OC(C)C(O)C(O)C1O` (configuration not stated), for which the TGI in the test on ACHN renal, in the test with NCI-H226 lung, in the test on CAKI-1 renal, in the test with MDA-MB-231 breast, in the test on NCI-H23 lung and in the test on SK-MEL-5 melanoma was above 100 µM throughout. Moreover, the TGI in the test with NCI-H522 lung, with MDA-N, in the test on M14 melanoma and in the test with IGROV1 ovarian was above 100 µM each time.

As to `c1ccc(C/C(=N\Nc2nc3ccccc3o2)c2ccccn2)cc1`, the TGI in the test with ACHN renal is 3.31 µM; in the test with NCI-H226 lung it was 0.363 µM; in the test on CAKI-1 renal, 0.654 µM; in the test with MDA-MB-231 breast, 16.7 µM; in the test with NCI-H23 lung, above 36.4 µM; with SK-MEL-5 melanoma, 0.368 µM. Besides, the TGI with NCI-H522 lung stood at 18.9 µM; in the test with MDA-N, 5.13 µM; in the test with M14 melanoma, 0.992 µM; with IGROV1 ovarian, 0.609 µM.

As for `COc1cc(O)c2c(c1)C(O)C(O)CC1OC1C(=O)/C=C/CC(C)OC2=O` (configuration not stated), the TGI turned out to be 17 µM in the test with ACHN renal; 33.9 µM in the test with NCI-H226 lung; 11.5 µM in the test with CAKI-1 renal; 16.1 µM in the test on MDA-MB-231 breast; 12 µM with NCI-H23 lung; 15.4 µM with SK-MEL-5 melanoma. The TGI with NCI-H522 lung stood at 8.07 µM; in the test on MDA-N, 21.6 µM; in the test on M14 melanoma it was 11.8 µM; in the test with IGROV1 ovarian, 20.1 µM.

`CN1C/C(=C\c2ccccc2[N+](=O)[O-])C(=O)/C(=C/c2ccccc2[N+](=O)[O-])C1`: the GI50 with ACHN renal was 0.532 µM and 0.228 µM; in the test on CAKI-1 renal, 0.475 µM and 0.234 µM; with MDA-MB-231 breast, 0.284 µM; with NCI-H23 lung, 0.868 µM; in the test on NCI-H522 lung, 0.437 µM and 0.187 µM; with MDA-N, 0.783 µM and 0.298 µM. Also, the GI50 in the test with M14 melanoma is 1.76 µM and 0.298 µM. Further, the TGI in the test on ACHN renal is 1.46 µM and 0.628 µM; in the test on NCI-H226 lung, 16.3 µM; in the test on CAKI-1 renal, 1.41 µM and 0.545 µM; in the test with MDA-MB-231 breast, 0.911 µM; with NCI-H23 lung, 3.26 µM and > 20.7 µM; in the test with SK-MEL-5 melanoma, 2.31 µM and 2.91 µM. In addition, the TGI was 1.05 µM and 0.396 µM in the test with NCI-H522 lung; 2.91 µM and 1.16 µM in the test with MDA-N; 4.17 µM and 0.876 µM in the test on M14 melanoma; 2.47 µM and 2.1 µM with IGROV1 ovarian.

On to `CC(C)[Si]1(C(C)C)OCC2OC(n3cnc4c(N)ncnc43)C(N)C2O[Si](C(C)C)(C(C)C)O1` (configuration not stated), for which the TGI in the test on ACHN renal worked out at 21.6 µM; in the test on NCI-H226 lung, 25.8 µM; in the test on CAKI-1 renal, 35.3 µM; with MDA-MB-231 breast it was 33.1 µM; with NCI-H23 lung, 26.5 µM; with SK-MEL-5 melanoma it was 9.01 µM. In addition, the TGI with NCI-H522 lung is 26.4 µM; in the test with MDA-N, 24.3 µM; in the test on M14 melanoma it was 26.3 µM; with IGROV1 ovarian, 43.3 µM.

Consider `COc1ccc(C=O)cc1Oc1ccc(C[C@H]2c3c(cc(OC)c4c3Oc3cc5c(cc3O4)CCN(C)C5=O)CCN2C)cc1`, for which the TGI was 18.4 µM in the test with ACHN renal; 16.8 µM with NCI-H226 lung; above 50 µM in the test on CAKI-1 renal; 14.6 µM in the test on MDA-MB-231 breast; 16 µM in the test on NCI-H23 lung; 19.4 µM with SK-MEL-5 melanoma. Also, the TGI was 18.1 µM in the test with NCI-H522 lung, 18.2 µM in the test with MDA-N, 19.1 µM with M14 melanoma and 13.7 µM with IGROV1 ovarian.

For `CCCCC(=C=C1CCCCC1O)C1CCCN1C(=O)OC(C)(C)C` (configuration not stated), the TGI in the test on ACHN renal came to 29.2 µM; in the test on NCI-H226 lung, 34.8 µM; with CAKI-1 renal it was 24.4 µM; with MDA-MB-231 breast, 30 µM; with NCI-H23 lung, 32.4 µM; in the test with SK-MEL-5 melanoma, 30.9 µM. Besides, the TGI in the test on NCI-H522 lung came out at 32.8 µM; in the test with MDA-N, 30 µM; in the test on M14 melanoma, 30.9 µM; in the test on IGROV1 ovarian it was 31.1 µM.

Regarding `C=C1c2nc3ccccc3n2C=C(c2ccccc2)N1c1ccc(OC)cc1`, the TGI with ACHN renal was 28.7 µM; with NCI-H226 lung, 35.6 µM; in the test with CAKI-1 renal, 64 µM; with MDA-MB-231 breast, above 100 µM; in the test on NCI-H23 lung, 74.4 µM; with SK-MEL-5 melanoma it was 38.2 µM. The TGI was 16.1 µM in the test with NCI-H522 lung, above 100 µM in the test with MDA-N, 52.6 µM in the test with M14 melanoma and 35.8 µM with IGROV1 ovarian.

With `CN(C)CCNc1nc2ccccc2c2c1C(=O)c1ccccc1-2`, the TGI in the test on ACHN renal was 0.601 µM; with NCI-H226 lung it was 0.862 µM; with CAKI-1 renal, 2.54 µM; in the test with MDA-MB-231 breast it was 2.62 µM; in the test with NCI-H23 lung, 1.82 µM; in the test with SK-MEL-5 melanoma, 1.92 µM. For the same molecule, the TGI with NCI-H522 lung worked out at 0.895 µM; with MDA-N it was 1.39 µM; with M14 melanoma it was 1.67 µM; with IGROV1 ovarian it was 0.807 µM.

As for `CC(=O)c1nccc2c1c(C)nc1ccccc12`, the TGI was above 100 µM in the test with ACHN renal; 67.9 µM in the test on NCI-H226 lung; above 100 µM with CAKI-1 renal; above 100 µM in the test with MDA-MB-231 breast; above 100 µM in the test with NCI-H23 lung; above 100 µM with SK-MEL-5 melanoma. The TGI in the test on NCI-H522 lung, in the test with MDA-N, in the test on M14 melanoma and in the test with IGROV1 ovarian was above 100 µM in each case.

On to `COC1(OC)N=C(N)C2(C#N)/C(=N/N(C)C)CC(C)C12C#N` (configuration not stated), for which the TGI in the test on ACHN renal, in the test on NCI-H226 lung, in the test on CAKI-1 renal, with MDA-MB-231 breast, in the test with NCI-H23 lung and in the test on SK-MEL-5 melanoma was above 100 µM throughout. In addition, the TGI in the test with NCI-H522 lung, in the test on MDA-N, in the test with M14 melanoma and in the test on IGROV1 ovarian was above 100 µM in each case.

In the case of `CSC1(SC)CCCCCCCCCCC1`, the TGI with ACHN renal, in the test with NCI-H226 lung, with CAKI-1 renal, in the test with MDA-MB-231 breast, in the test on NCI-H23 lung and in the test on SK-MEL-5 melanoma was above 100 µM throughout. The TGI in the test on NCI-H522 lung was 34.9 µM; with MDA-N, above 100 µM; in the test on M14 melanoma, above 100 µM; with IGROV1 ovarian, above 100 µM.

Turning to `O=C(O)CNC(=O)c1cccc2c(=O)c3ccccc3[nH]c12`, the TGI with ACHN renal, in the test on NCI-H226 lung, in the test on CAKI-1 renal, in the test with MDA-MB-231 breast, in the test with NCI-H23 lung and in the test on SK-MEL-5 melanoma was above 100 µM throughout. Also, the TGI in the test on NCI-H522 lung, with MDA-N, with M14 melanoma and in the test on IGROV1 ovarian was above 100 µM in each case.

For the molecule `CC(=O)Nc1ncc2c(n1)-c1ccccc1OC2`, the TGI in the test on ACHN renal, in the test with NCI-H226 lung, in the test with CAKI-1 renal, with MDA-MB-231 breast, in the test with NCI-H23 lung and with SK-MEL-5 melanoma was above 100 µM each time. Also, the TGI in the test on NCI-H522 lung, in the test on MDA-N, in the test on M14 melanoma and in the test with IGROV1 ovarian was above 100 µM each time.

In the case of `O=C(O)c1ccccc1-c1ccccc1C(=O)c1ccccc1`, the TGI in the test on ACHN renal, with NCI-H226 lung, in the test on CAKI-1 renal, in the test with MDA-MB-231 breast, with NCI-H23 lung and in the test on SK-MEL-5 melanoma was above 100 µM in each case. Besides, the TGI in the test on NCI-H522 lung, in the test with MDA-N, with M14 melanoma and in the test on IGROV1 ovarian was above 100 µM each time.
